Experimental data from ChEMBL document CHEMBL1201862, “PubChem BioAssay data set” (2004).
Activity calls are given as the source filed them. Cut-off read from the data, not from the text of the source, for most assays here: actives have a measured EC50 and inactives only a lower limit.

Test system: not listed separately
Assay: NIH-3T3 fibroblast cytotoxicity, dose response, cytotoxicity control, cell-based, fluorescence, Alamar Blue, secondary assay (AID 2327);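 note: NIH-3T3 mouse fibroblasts cultured with fluconazole at 8 µg/mL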
Format: functional
Settings: not given

Row | Compound | EC50
1 | Cc1noc(/C=C/c2ccccn2)c1[N+](=O)[O-] | 3.04 µM (inconclusive)

Biological target: T1, RNA-binding protein pos-1 (Caenorhabditis elegans, UniProt G5EF15)
T1 sequence (G5EF15 whole entry): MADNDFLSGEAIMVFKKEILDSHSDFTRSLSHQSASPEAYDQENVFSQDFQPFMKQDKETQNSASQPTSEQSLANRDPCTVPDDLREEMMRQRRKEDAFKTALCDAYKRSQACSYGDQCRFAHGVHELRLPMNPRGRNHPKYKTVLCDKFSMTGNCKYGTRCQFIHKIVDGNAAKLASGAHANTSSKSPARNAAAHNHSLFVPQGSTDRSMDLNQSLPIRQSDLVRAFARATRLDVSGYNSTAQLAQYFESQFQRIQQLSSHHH
Assay: inhibitors of POS-1/mex-3 RNA binding, dose response, biochemical, fluorescence polarization (AID 1964);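 note: purified POS-1 fused to maltose binding protein made in E. coli; potency of compounds blocking POS-1 binding to fluorescent RNA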
Settings: not given

Row | Compound | EC50
2 | C/N=C1\S/C(=C\c2ccc(O)c(OC)c2)C(=O)N1C | > 300 µM (not active)

Test system: not listed separately
Assay: Luminescence Cell-Based Dose Response HTS to Identify Activators of Luciferase Translation or Activity in H4 […] Cells. [Related pubchem assays: 1829 (Project Summary), 1814 (Primary HTS)]
Format: functional
Settings: not given

Row | Compound | EC50
3 | CCOc1ccc(N2C(=O)/C(=C/c3ccccc3)N=C2SC)cc1 | 0.135 µM (active)

Test system: BJ
Assay: cytotoxicity toward BJ-TERT fibroblasts, dose response, cell-based, RAS-independent, luminescence (AID 1933)
Format: functional
Settings: Homo sapiens

Row | Compound | EC50
4 | Cc1noc(/C=C/c2ccccn2)c1[N+](=O)[O-] | 8.5 µM (active)
5 | COc1ccc(N2CCN(CCCn3c(=S)[nH]c4ncccc4c3=O)CC2)cc1 | > 150 µM (not active)
6 | CC1=Nc2cc(C(=O)NCCCOC(C)C)ccc2Sc2ccc(C)cc21 | 2.72 µM (active)
7 | CCOc1ncccc1C(=O)N1CCN(c2cccc(C)c2C)CC1 | 0.541 µM (active)
8 | Cc1ccc(/C=N/NC(=O)c2csc3c2CCCC3)cc1 | 2.46 µM (active)

Test system: H4
Assay: Luminescence Cell-Based Dose Response HTS to Identify Activators of 5'UTR Stem-Loop Driven Prion Protein mRNA Translation in H4 Neuroglioblastoma Cells. [Related pubchem assays: 1829 (Project Summary), 1814 (Primary HTS)]
Format: functional
Settings: Homo sapiens

Row | Compound | EC50
9 | CCOc1ccc(N2C(=O)/C(=C/c3ccccc3)N=C2SC)cc1 | 108 µM (active)

Biological target: T2, Zinc finger protein mex-5 (Caenorhabditis elegans, UniProt Q9XUB2)
T2 sequence (Q9XUB2 whole entry): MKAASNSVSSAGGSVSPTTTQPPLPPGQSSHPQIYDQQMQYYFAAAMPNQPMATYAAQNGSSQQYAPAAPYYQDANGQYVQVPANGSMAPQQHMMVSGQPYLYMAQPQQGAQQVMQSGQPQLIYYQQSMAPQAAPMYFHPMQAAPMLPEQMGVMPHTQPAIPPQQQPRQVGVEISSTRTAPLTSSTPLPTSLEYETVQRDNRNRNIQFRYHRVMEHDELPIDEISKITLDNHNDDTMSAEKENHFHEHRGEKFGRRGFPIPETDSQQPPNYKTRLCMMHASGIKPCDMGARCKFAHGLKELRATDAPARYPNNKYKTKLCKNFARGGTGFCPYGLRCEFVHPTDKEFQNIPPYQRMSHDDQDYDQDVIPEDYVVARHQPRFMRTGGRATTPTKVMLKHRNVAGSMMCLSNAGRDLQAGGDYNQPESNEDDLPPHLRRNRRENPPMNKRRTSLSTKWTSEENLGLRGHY
Assay: MEX-5/TCR-2 RNA interaction inhibitors, dose response, biochemical, C. elegans, fluorescence polarization (AID 1960)
Settings: not given

Row | Compound | EC50
10 | C/N=C1\S/C(=C\c2ccc(O)c(OC)c2)C(=O)N1C | > 300 µM (not active)

Biological target: T3, Heat shock factor protein 1 (Mus musculus, UniProt P38532)
T3 sequence (P38532 whole entry): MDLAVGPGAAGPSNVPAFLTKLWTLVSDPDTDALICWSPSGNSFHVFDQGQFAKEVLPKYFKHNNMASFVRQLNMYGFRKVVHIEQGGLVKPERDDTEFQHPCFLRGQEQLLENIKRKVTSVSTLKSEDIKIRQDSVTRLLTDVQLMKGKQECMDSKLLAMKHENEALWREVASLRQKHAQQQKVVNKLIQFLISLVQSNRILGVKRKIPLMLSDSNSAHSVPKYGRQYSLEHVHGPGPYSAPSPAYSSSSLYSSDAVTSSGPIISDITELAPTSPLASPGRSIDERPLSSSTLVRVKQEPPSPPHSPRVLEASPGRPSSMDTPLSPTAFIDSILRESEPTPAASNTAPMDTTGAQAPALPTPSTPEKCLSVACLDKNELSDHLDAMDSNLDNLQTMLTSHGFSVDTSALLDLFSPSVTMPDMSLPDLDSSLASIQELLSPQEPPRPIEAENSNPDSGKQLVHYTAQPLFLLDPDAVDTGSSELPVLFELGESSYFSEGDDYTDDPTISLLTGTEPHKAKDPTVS
Assay: inhibition of MG132-induced HSE-luciferase signal, confirmation, cell-based, NIH3T3, luminescence, dose retest (AID 2382);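 note: NIH3T3 fibroblasts with HSF1-driven luciferase reporter stressed by proteasome inhibitor MG132; luminescence from HSF1-driven luciferase expression after 8 hours of MG132 stress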
Format: functional
Settings: not given

Row | Compound | EC50
11 | COc1ccc(N2CCN(CCCn3c(=S)[nH]c4ncccc4c3=O)CC2)cc1 | > 195 µM (not active)

Test system: BJ
Assay: cells
Format: functional, cell-based
Settings: Homo sapiens

Row | Compound | EC50
12 | Cc1noc(/C=C/c2ccccn2)c1[N+](=O)[O-] | 24.5 µM (inconclusive)
13 | COc1ccc(N2CCN(CCCn3c(=S)[nH]c4ncccc4c3=O)CC2)cc1 | 44.2 µM (active)
14 | CC1=Nc2cc(C(=O)NCCCOC(C)C)ccc2Sc2ccc(C)cc21 | 3.85 µM (inconclusive)
15 | CCOc1ncccc1C(=O)N1CCN(c2cccc(C)c2C)CC1 | 37.3 µM (inconclusive)
16 | Cc1ccc(/C=N/NC(=O)c2csc3c2CCCC3)cc1 | 54.1 µM (active)

Test system: not listed separately
Assay: C. albicans growth with fluconazole, confirmation, fluorescence, retest (AID 2467)
Format: functional, cell-based
Settings: not given

Row | Compound | EC50
17 | Cc1noc(/C=C/c2ccccn2)c1[N+](=O)[O-] | 2.97 µM (active)

Biological target: Large T antigen (Simian virus 40, UniProt P03070);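 note: Confirmatory-stage PubChem screen for compounds that inhibit SV40 T antigen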
Sequence (P03070 whole entry): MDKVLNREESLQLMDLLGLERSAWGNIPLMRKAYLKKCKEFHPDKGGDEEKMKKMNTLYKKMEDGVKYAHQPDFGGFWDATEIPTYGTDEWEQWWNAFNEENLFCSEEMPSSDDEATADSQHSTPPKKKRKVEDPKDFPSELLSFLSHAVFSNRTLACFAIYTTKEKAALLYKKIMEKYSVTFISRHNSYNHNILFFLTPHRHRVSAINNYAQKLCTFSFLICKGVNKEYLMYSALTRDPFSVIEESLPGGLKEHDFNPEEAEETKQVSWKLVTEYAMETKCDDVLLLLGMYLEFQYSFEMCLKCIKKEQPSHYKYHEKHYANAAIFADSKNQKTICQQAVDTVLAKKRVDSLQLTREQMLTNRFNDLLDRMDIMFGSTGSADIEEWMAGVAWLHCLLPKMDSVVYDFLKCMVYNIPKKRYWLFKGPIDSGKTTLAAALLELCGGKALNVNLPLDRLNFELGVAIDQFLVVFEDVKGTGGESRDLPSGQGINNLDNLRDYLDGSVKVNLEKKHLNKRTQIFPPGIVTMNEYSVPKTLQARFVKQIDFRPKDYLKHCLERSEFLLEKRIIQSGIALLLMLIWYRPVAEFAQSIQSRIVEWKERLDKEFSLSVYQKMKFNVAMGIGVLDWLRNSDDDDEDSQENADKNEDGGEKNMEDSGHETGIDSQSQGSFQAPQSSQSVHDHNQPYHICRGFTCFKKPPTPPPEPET
Assay: not given
Format: functional, Betapolyomavirus macacae
Settings: not given

Row | Compound | IC50
18 | Cc1ccc(-c2nnc(Nc3ccc(O)cc3)c3ccccc23)cc1S(=O)(=O)NCCO | 13.2 µM (active)
19 | COCCNC(=S)N/N=C(\C)c1ccc(O)cc1 | 10.8 µM (active)
20 | C(=N\Nc1nc2ccccc2[nH]1)/c1cccs1 | 16.9 µM (active)
21 | C/N=C1\S/C(=C\c2ccc(O)c(OC)c2)C(=O)N1C | 11.1 µM (active)

Biological target: Luciferin 4-monooxygenase (Photinus pyralis, UniProt P08659)
Sequence (P08659 whole entry): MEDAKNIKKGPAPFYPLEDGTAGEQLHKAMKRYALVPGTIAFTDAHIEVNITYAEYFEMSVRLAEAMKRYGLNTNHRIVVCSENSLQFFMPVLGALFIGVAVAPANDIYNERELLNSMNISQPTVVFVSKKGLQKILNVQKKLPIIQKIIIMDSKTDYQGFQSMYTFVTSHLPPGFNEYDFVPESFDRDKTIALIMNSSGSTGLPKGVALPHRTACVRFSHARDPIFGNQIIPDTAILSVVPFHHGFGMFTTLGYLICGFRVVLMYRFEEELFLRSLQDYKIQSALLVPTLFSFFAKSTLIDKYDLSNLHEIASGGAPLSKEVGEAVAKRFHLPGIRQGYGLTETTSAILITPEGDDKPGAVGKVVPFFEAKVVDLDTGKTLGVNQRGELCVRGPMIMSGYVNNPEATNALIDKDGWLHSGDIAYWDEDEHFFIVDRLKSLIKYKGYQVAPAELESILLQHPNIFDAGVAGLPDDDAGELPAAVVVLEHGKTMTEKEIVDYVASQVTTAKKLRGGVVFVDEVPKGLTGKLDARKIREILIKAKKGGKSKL
Assay: firefly luciferase enzyme inhibitors, dose response, biochemical, luminescence (AID 1891)
Settings: not given

Row | Compound | EC50
22 | CCNc1nc(NC#N)nc(SCC(=O)OCC)n1 | > 112 µM (not active)
23 | CCN(CC)S(=O)(=O)c1cc(OCC(N)=O)c(C)cc1Cl | > 112 µM (not active)
24 | O=c1cc(CN2CCN(c3ccccc3O)CC2)nc2sccn12 | > 112 µM (not active)
25 | CSc1ccc(/C=C2\C(=N)N3N=C(CC(=O)N4CCOCC4)SC3=NC2=O)cc1 | > 112 µM (not active)
26 | O=C(Nc1nccs1)C1CCN(S(=O)(=O)c2ccc(F)cc2)CC1 | > 112 µM (not active)
27 | O=C(Nc1ccc(F)cc1)C1CCCCC1 | > 112 µM (not active)
28 | COc1ccc(C(=O)N2CCCc3ccccc32)cc1 | > 112 µM (not active)
29 | COc1cc(/C=N/NC(N)=O)ccc1OCC(=O)N1C(C)CCCC1C (configuration not stated) | > 112 µM (not active)

Test system: not listed separately
Assay: Luminescence Cell-Based Dose Confirmation HTS to Identify Inhibitors of Platelet Dense Granule Release. [Related pubchem assays: 1663 (Primary HTS), 1678 (Summary of Project)]
Format: functional
Settings: not given

Row | Compound | EC50
30 | CCNc1nc(NC#N)nc(SCC(=O)OCC)n1 | > 112 µM (not active)
31 | CCN(CC)S(=O)(=O)c1cc(OCC(N)=O)c(C)cc1Cl | > 112 µM (not active)
32 | O=c1cc(CN2CCN(c3ccccc3O)CC2)nc2sccn12 | 53.2 µM (active)
33 | CSc1ccc(/C=C2\C(=N)N3N=C(CC(=O)N4CCOCC4)SC3=NC2=O)cc1 | > 112 µM (not active)
34 | O=C(Nc1nccs1)C1CCN(S(=O)(=O)c2ccc(F)cc2)CC1 | 18.6 µM (active)
35 | O=C(Nc1ccc(F)cc1)C1CCCCC1 | > 112 µM (not active)
36 | COc1ccc(C(=O)N2CCCc3ccccc32)cc1 | > 112 µM (not active)
37 | COc1cc(/C=N/NC(N)=O)ccc1OCC(=O)N1C(C)CCCC1C (configuration not stated) | 5.74 µM (active)

Test system: BJ
Assay: cytotoxicity toward BJ-TERT-LT-ST fibroblasts, dose response, cell-based, RAS-independent, luminescence (AID 1935);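 note: BJ fibroblasts immortalized with TERT plus LT and ST oncogenes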
Format: functional
Settings: Homo sapiens

Row | Compound | EC50
38 | Cc1noc(/C=C/c2ccccn2)c1[N+](=O)[O-] | 9.6 µM (active)
39 | COc1ccc(N2CCN(CCCn3c(=S)[nH]c4ncccc4c3=O)CC2)cc1 | > 150 µM (not active)
40 | CC1=Nc2cc(C(=O)NCCCOC(C)C)ccc2Sc2ccc(C)cc21 | 2.75 µM (active)
41 | CCOc1ncccc1C(=O)N1CCN(c2cccc(C)c2C)CC1 | 0.349 µM (inconclusive)
42 | Cc1ccc(/C=N/NC(=O)c2csc3c2CCCC3)cc1 | 93.4 µM (active)

Test system: not listed separately
Assay: cytotoxicity toward DRD oncogenic fibroblasts, dose response, cell-based, non-viral oncogenic, luminescence (AID 1934)
Format: functional
Settings: Homo sapiens

Row | Compound | EC50
43 | Cc1noc(/C=C/c2ccccn2)c1[N+](=O)[O-] | 9.44 µM (active)
44 | COc1ccc(N2CCN(CCCn3c(=S)[nH]c4ncccc4c3=O)CC2)cc1 | 58.9 µM (active)
45 | CC1=Nc2cc(C(=O)NCCCOC(C)C)ccc2Sc2ccc(C)cc21 | 2.86 µM (active)
46 | CCOc1ncccc1C(=O)N1CCN(c2cccc(C)c2C)CC1 | 0.458 µM (active)
47 | Cc1ccc(/C=N/NC(=O)c2csc3c2CCCC3)cc1 | 1.9 µM (active)
